Measurements from patent US4696920A, “Certain 2-substituted 1,3-propylidenediphosphonate derivatives, pharmaceutical compositions containing them and their use as antihypertensive agents” (priority 1984, dated 1987).

Columns and labels:
[1] = system: blood pressure in hypertensive rats; experiment: Oral hypotensive activity in hypertensive rats (tail cuff); assay type: in vivo, rat (spontaneously hypertensive, SHR); details: Table 5
Method: Some selected compounds were given orally to conscious SHR rats and blood pressure was monitored using the tail cuff method. A marked and sustained hypotensive activity was measured in all treated rats. Results are given 2 hours post dose (Table 5). These studies illustrate the obvious potential use of orally administered 1,3-diphosphonates for the clinical treatment of hypertension in man.

[2] = system: [^3 H]-PN-200 110 (dihydropyridine) binding site of calcium channel, rat brain membranes; experiment: [^3 H]-PN-200 110 binding to rat brain membranes; parameters: species or system rat (male Wistar); details: for Specifically bound [^3 H]-PN-200 110 % of control value: compound concentration 1.0 μM; for Specifically bound [^3 H]-PN-200 110 % of control value / Bound ^3 H at 1.0 μM / Bound ^3 H at 0.1 μM: Table 1b; for Bound ^3 H at 1.0 μM / Bound ^3 H at 0.1 μM: ratio of [^3 H]-PN-200 110 bound at 1.0 and 0.1 μM compound; for potency in [^3 H]-PN200 110 binding (in words): text on Table 1b
Method: (§1) Diltiazem hydrochloride was a generous gift from Goedecke A. G.
Water insoluble compounds were dissolved in absolute ethanol to give 10 mM or 2.5 mM stock solutions. Suitable dilutions were made in 50 mM Tris-HCl buffer (pH 7.4) containing 150 mM NaCl and 1 mM CaCl2. The ethanol concentration in the final assay never exceeded 0.1%.
(§2) The purity of the radioligand and of the various agents tested was monitored by thin layer chromatography on silica gel plates.
(§3) The following procedure was adapted from Bellemann et al (Proc. Nat. Acad. Sci. 80, 2356, 1983), and Gould et al (Proc. Nat. Acad. Sci. 79, 3656, 1982).
(§4) Adult male Wistar rats weighing 250-300 g were anesthetized with carbon dioxide prior to decapitation. The brain was removed then immersed in ice-cold 0.32M sucrose and washed 2-3 times with fresh solution. Cerebral cortex was minced and homogenized (Potter-Elvehjem homogenizer) in 10 volumes of ice-cold sucrose solution. The homogenate was centrifuged (4° C.) at 1000×g for 15 minutes. The resulting supernatant was then centrifuged at 90000×g (30 minutes) and the pellet was washed twice with 20 ml ice-cold 50 mM Tris-HCl pH 7.4.
(§5) The final pellet was resuspended in 50 mM Tris-HCl pH 7.4/150 mM NaCl/1 mM CaCl2 to give a protein concentration of 4 mg/ml.
(§6) The membrane suspension was kept on ice until used. Binding assays were performed in subdued light to prevent dihydropyridine breakdown. Membrane protein (400 μg/tube) was incubated in 50 mM Tris-HCl buffer (pH 7.4)/150 mM NaCl/1 mM CaCl2 with the indicated concentrations of radioligand and test compounds or known calcium antagonists, in a total volume of 2 ml. After the indicated time intervals, the reaction was terminated by rapid filtration through Whatman GF/B glass fiber filters (2.4 cm diameter) on a Millipore filter holder. The assay tube was rinsed with 2 ml ice-cold 50 mM Tris-HCl pH (7.4) and the precipitate was further washed with 2×5 ml of the same buffer.
(§7) Filters were dried under a heat lamp and were extracted with 10 ml of liquid scintillation cocktail (Toluene/Triton X-100, 2/1 containing 4 g Omnifluor/1) prior to tritium determination at 48% counting efficiency.
(§8) Assays were performed in duplicate or triplicate.
(§9) Data were expressed as percent specific [^3 H]-Nitrendipine binding relative to the established control value.
(§10) Compound activity in the [^3 H]-Nitrendipine binding assay was evaluated by using the following criteria:
(§11) 1. [^3 H]-Nitrendipine binding at 1.0 μM compound final concentration was either below 95% or above 105% of the control value determined in absence of compound.
2. The ratio obtained by dividing the amount of specifically found [^3 H]-Nitrendipine at 1.0 μM compound final concentration by the value obtained at 0.1 μM test compound, was smaller than 0.9 or greater than 1.1. This ratio is indicative of a dose response relationship within the compound concentration range tested, when the value differs appreciably from 1.0.
Note: In some experiments [^3 H]-PN200 110, a new and commercially available specific dihydropyridine was used instead of [^3 H]-Nitrendipine.

[3] = system: drug receptor sites associated with calcium channels; details: known calcium antagonists; cited from earlier work
[4] = system: calcium channel binding site for [^3 H]-Nitrendipine (rat brain membranes); experiment: [^3 H]-Nitrendipine binding to rat brain membranes; parameters: species or system rat (male Wistar); details: for modulation of [^3 H]-Nitrendipine binding (in words) / Specifically bound [^3 H]-Nitrendipine % of control value / Bound ^3 H at 1.0 μM / Bound ^3 H at 0.1 μM: Table 1a; for Specifically bound [^3 H]-Nitrendipine % of control value: compound concentration 1.0 μM; for Bound ^3 H at 1.0 μM / Bound ^3 H at 0.1 μM: ratio of [^3 H]-Nitrendipine bound at 1.0 and 0.1 μM compound
Method: as §1
Suitable dilutions were made in 50 mM Tris-HCl buffer (pH 7.4) containing 150 mM NaCl and 1 mM CaCl2. The ethanol concentration in the final assay never exceeded 0.1%.
as §2, §3, §4, §5, §6, §7, §8, §9, §10, §11
2. […] This ratio is indicative of a dose response relationship within the compound concentration range tested, when the value differs appreciably from 1.0.

[5] = system: isolated rat atrium (atrium rate); experiment: Chronotropic activity in isolated rat atrium; parameters: species or system rat (male SHR, Okamoto-Aoki); details: 5.0 × 10^-6 M, mean ± SEM, read-out: Decrease in atrium rate (% pretest)
Method: Spontaneously hypertensive male rats (SHR) (Okamoto-Aoki strain) were anesthetized with Pentobarbital (Nembutal Abbott, 60 mg/kg, i.p.). The hearts were quickly excised and both atria were dissected free from adjacent cardiac tissues. The atria were immediatly placed in a 50 ml Krebs-Ringer bath with the following composition (mM): NaCl, (120.0); KCl, (5.63); CaCl2, (2.0); MgCl2, (2.10); NaHCO3, (25.0); Glucose, (9.7) (pH 7.4). The solution was continuously bubbled with a O2 /CO2 mixture (95/5) and maintained at 37±1° C. The atrium was fixed to an optical displacement transducer (IITC, USA) under a resting tension of 1 g in order to measure atrial rate. The preparation was allowed to equilibrate for 40 min then cumulative dose-response curves were determined for each test compound (0.5-5 μMole/l). Maximum effect was normally obtained within 30-40 min. for each concentration.
Stock solutions of the 1,3-diphosphonates were generally prepared in 0.9% saline and water insoluble compounds were prepared in 50% ethanol. […] When tested at the concentration of 5.0×10^-6 M a decrease in atrium rate of more than 5% was considered as significant.
All data are presented as % decrease of initial atrium rate (mean values±SEM). A potent negative chronotropic effect was found with all compounds tested (table 3).

[6] = system: rat trachea contraction induced by KCl depolarization; experiment: KCl-induced rat trachea contraction; parameters: species or system rat (male SHR, Okamoto-Aoki); details: for activity at 1 µM: Rattus norvegicus, 40 min, read-out: Contraction (% max.); for activity on KCl-induced trachea contraction (in words): final concentration 1.0 μM
Method: Spontaneously hypertensive male rats (SHR) Okamoto-Aoki Strain, weighing 300-400 g were used in this study. They were killed by bleeding after Pentobarbital anesthesia (Nembutal, Abbott Co, 40 mg/kg). Their entire trachea was quickly removed and dissected free of fat and connective tissue in Krebs-Ringer solution. A strip (4 mm×40 mm), obtained by spirally cutting the trachea, was immediately suspended in a 50 ml Krebs-Ringer solution and continuously bubbled with a O2 /CO2 (95/5) mixture. Bath temperature was maintained at 37±1° C. The composition (mM) of the Krebs-Ringer solution modified by Nghiem, was as follows: NaCl, (118.0); KCl, (4.7); CaCl2, (2.5); MgCl2, (1.18); NaHCO3, (12.5); KH2 P04, (1.18); glucose, (5.5) in bidistilled water (pH 7.4). Each strip was equilibrated under initial tension (1.5-2 g) for 1-2 hours and the bath solution changed every 30 min. A contractile or relaxant response was isometrically measured with a force-displacement transducer (Ugo-Basile) and recorded on a polygraph (Beckman).
After equilibration, KCl was added to the bath at 65 mM final concentration. This concentration produced maximum trachea contraction. Under these conditions, a plateau phase showing a tonic sustained contraction was reached within 30 minutes. Drugs were added 30 minutes after the plateau phase has been reached (final concentration=1.0 μM). […] Recordings of the residual trachea contraction were made 40 minutes after drug addition to the bathing fluid. The initial KCl induced contraction was taken as the maximum KCl response (100%). Results were expressed as % of maximal contraction. Nifedipine, Prenylamine, Flunarizine and Diltiazem were used as reference standards to validate this assay.
All 1,3-diphosphonates and drugs were dissolved in saline (0.9% NaCl) except when water insoluble, then the compounds were dissolved in 2% ethanol. The final concentration of ethanol used has been shown not to interfere with the assay.
Results are expressed as mean values±SEM, the Student's t-test was used for statistical analysis.

[7] = system: mean blood pressure in rat; experiment: Acute intravenous hypotensive activity in anesthetized rats; assay type: in vivo, rat (male Wistar); details: Rattus norvegicus, iv, read-out: Decrease in mean blood pressure (% pretest)
Method: Male Wistar rats were anesthetized with Pentobarbital (Nembutal, 60 mg/kg i.p.) and heparinized (5 mg/kg i.p.). After tracheotomy the right carotid was cannulated (catheter PE 50); blood pressure was measured with a pressure transducer (Statham P 23 db) and recorded on a polygraph (Beckman).
Animals received 0.5 and 1.5 mg/kg of the test compounds. Less than 100 μl of test compounds dissolved in 0.9% saline were injected in the jugular vein. Highly water insoluble compounds were suspended in 2% Tween-80. Injection of the vehicle alone had no detectable hypotensive effect.
Results presented are expressed as percent decrease in initial mean blood pressure (Mean±SEM).

Row | % [^3 H]-Nitrendipine bound ([4]; reference standards at 1 μM) | SMILES | oral hypotensive activity (in words) [1] | Specifically bound [^3 H]-PN-200 110 % of control value [2] | Bound ^3 H at 1.0 μM / Bound ^3 H at 0.1 μM [2] | potency in [^3 H]-PN200 110 binding (in words) [2] | effect on [^3 H]-Nitrendipine binding (in words) [3] | inhibition at 5 µM [5] | activity at 1 µM [6] | activity on KCl-induced trachea contraction (in words) [6] | inhibition in vivo at 0.5 mg/kg [7] | modulation of [^3 H]-Nitrendipine binding (in words) [4] | Specifically bound [^3 H]-Nitrendipine % of control value [4] | Bound ^3 H at 1.0 μM / Bound ^3 H at 0.1 μM [4]
1 |  | CCCCOP(=O)(CC(CCOc1ccc(Cl)cc1)CP(=O)(OCCCC)OCCCC)OCCCC [Compound 90] | decrease blood pressure as markedly as the marketed calcium antagonists used as references | 4 % of control value | 0.243 | as potent as Nifedipine |  |  |  |  |  |  |  | 
2 | 57% | CC(Cc1ccccc1)NCCC(c1ccccc1)c1ccccc1 (stereo not shown) [Prenylamine, reference compound] |  |  |  |  | reduce [^3 H]-Nitrendipine binding affinity |  |  |  |  |  |  | 
3 |  | CCCCOP(=O)(CC(CCOc1cccc(C(F)(F)F)c1)CP(=O)(OCCCC)OCCCC)OCCCC [Compound 93] | decrease blood pressure as markedly as the marketed calcium antagonists used as references | 0 % of control value | 0.000 | as potent as Nifedipine |  |  |  |  |  |  |  | 
4 |  | CCCCOP(=O)(CC(CCCc1ccccc1)CP(=O)(OCCCC)OCCCC)OCCCC [Compound 75, Tetrabutyl 2-(3-phenylpropyl)-1,3-propylidenediphosphonate] |  |  |  |  |  | 14.8 ± 4.8% | 70 ± 3% | potent pharmacological activity | 22.8 ± 1.6% | strong inhibitors | 22 % of control value | 0.354
5 |  | CCCCOP(=O)(CC(CCOc1ccccc1)CP(=O)(OCCCC)OCCCC)OCCCC [Compound 79, Tetrabutyl 2-(2-phenoxyethyl)-1,3-propylidenediphosphonate] | decrease blood pressure as markedly as the marketed calcium antagonists used as references | 3 % of control value | 0.211 |  |  |  | 60.3 ± 9.6% | potent pharmacological activity |  | strong inhibitors | 0 % of control value | 0.000
